In the data set the test system is CCRIS mutagenicity, Ames/micronucleus/aberration tests. Put plainly: CCRIS mutagenicity studies.
The mark [1] stands for this setting: Test System: AMES SALMONELLA TYPHIMURIUM, Strain/Indicator: TA97, Metabolic Activation: NONE, Method: PREINCUBATION
[2] abbreviates: Test System: AMES SALMONELLA TYPHIMURIUM, Strain/Indicator: TA102, Metabolic Activation: NONE, Method: PREINCUBATION
Setting [3] is: Test System: AMES SALMONELLA TYPHIMURIUM, Strain/Indicator: TA100, Metabolic Activation: NONE, Method: PREINCUBATION
Setting [4] is: Test System: AMES SALMONELLA TYPHIMURIUM, Strain/Indicator: TA98, Metabolic Activation: NONE, Method: STANDARD PLATE.
Where [5] appears, read: Test System: AMES SALMONELLA TYPHIMURIUM, Strain/Indicator: TA100, Metabolic Activation: NONE, Method: STANDARD PLATE.
Where [6] appears, read: Test System: AMES SALMONELLA TYPHIMURIUM, Strain/Indicator: TA98, Metabolic Activation: NONE, Method: PREINCUBATION

The text below walks through data of PubChem BioAssay AID1259407 (Chemical Carcinogenesis Research Information System (CCRIS), 2018).

Molecules are shown by their SMILES. Calls of active or inactive are those of the source. The rule behind the calls is not given here.

With `O.O.O=C([O-])[C@H](O)[C@@H](O)[C@H](O)[C@H](O)CO.O=C([O-])[C@H](O)[C@@H](O)[C@H](O)[C@H](O)CO.[Fe+2]`, the mutagenic call is, setting by setting: under setting [1], “inactive; negative”; (Test System: AMES SALMONELLA TYPHIMURIUM, Strain/Indicator: TA97, Metabolic Activation: RAT, LIVER, S-9, AROCLOR 1254, Method: PREINCUBATION) “inactive; negative”; under setting [2], “inactive; negative”; (Test System: AMES SALMONELLA TYPHIMURIUM, Strain/Indicator: TA102, Metabolic Activation: RAT, LIVER, S-9, AROCLOR 1254, Method: PREINCUBATION) “inactive; negative”.
In the case of `CCOC(=O)N(N=O)C(CCC=O)c1cccnc1` (configuration not stated), the mutagenic call under setting [3] is “active; positive”.
Take `COc1cccc2c1C1(C)OOC1(C)O2` (configuration not stated): under setting [3], the mutagenic call was “active; positive”.
As to `O=P1(N(CCCl)CCCl)NC(OO)CCO1` (configuration not stated), the mutagenic call (Test System: UDS HUMAN LYMPHOCYTES, Strain/Indicator: THY INCORP (NON-S-PHASE), Metabolic Activation: NONE, Method: LIQUID SCINTILLATION COUNTING) is “active; positive”.
Regarding `O=[N+]([O-])c1ccc2ccc3cccc([N+](=O)[O-])c3c2c1`, the mutagenic call (Test System: AMES SALMONELLA TYPHIMURIUM, Strain/Indicator: TA98(1,8-DNP6), Metabolic Activation: NONE, Method: STANDARD PLATE) is “active; positive”; the mutagenic call (Test System: AMES SALMONELLA TYPHIMURIUM, Strain/Indicator: TA98(NR), Metabolic Activation: NONE, Method: STANDARD PLATE) is “active; positive”; the mutagenic call under setting [4] is “active; positive”; the mutagenic call under setting [5] was “active; positive”; the mutagenic call (Test System: AMES SALMONELLA TYPHIMURIUM, Strain/Indicator: YG1021, Metabolic Activation: NONE, Method: STANDARD PLATE) was “active; positive”; the mutagenic call (Test System: AMES SALMONELLA TYPHIMURIUM, Strain/Indicator: YG1024, Metabolic Activation: NONE, Method: STANDARD PLATE) was “active; positive”. The mutagenic call runs as follows: (Test System: AMES SALMONELLA TYPHIMURIUM, Strain/Indicator: YG1026, Metabolic Activation: NONE, Method: STANDARD PLATE) “active; positive”; (Test System: AMES SALMONELLA TYPHIMURIUM, Strain/Indicator: YG1029, Metabolic Activation: NONE, Method: STANDARD PLATE) “active; positive”.
For `CCOc1cccc2cccnc12`, the mutagenic call (Test System: AMES SALMONELLA TYPHIMURIUM, Strain/Indicator: TA100, Metabolic Activation: S-9, Method: PREINCUBATION) was “inactive; negative”.
As to `Cc1c2c(c(CO)c3ccc4ccccc4c13)[C@H](O)[C@@H](O)C=C2`, the mutagenic call (Test System: CHINESE HAMSTER V-79, Strain/Indicator: V-79/6-THIOGUANINE, Metabolic Activation: CELL-MEDIATED, Method: STANDARD PLATE) was “active; positive” and the mutagenic call (Test System: CHINESE HAMSTER V-79, Strain/Indicator: V-79/OUABAIN, Metabolic Activation: CELL-MEDIATED, Method: STANDARD PLATE) was “active; positive”.
`NC1CCN(c2nc3c(cc2F)c(=O)c(C(=O)O)cn3-c2ccc(F)cc2F)C1` (configuration not stated): for the setting “Test System: AMES SALMONELLA TYPHIMURIUM, Strain/Indicator: TA102, Metabolic Activation: NONE, Method: STANDARD PLATE”, the mutagenic call was “active; positive”.
Consider `COC(=O)c1occ(-c2ccccc2)c1-c1ccccc1`, for which the mutagenic call runs as follows: under setting [4], “inactive; negative”; under setting [5], “inactive; negative”.
Regarding `O=C(O)c1cc(Cl)cc2cccnc12`, the mutagenic call under setting [4] is “inactive; negative”; the mutagenic call (Test System: AMES SALMONELLA TYPHIMURIUM, Strain/Indicator: TA98, Metabolic Activation: RAT, LIVER, S-9, AROCLOR 1254, Method: STANDARD PLATE) was “active; positive”; the mutagenic call under setting [5] was “inactive; negative”; the mutagenic call (Test System: AMES SALMONELLA TYPHIMURIUM, Strain/Indicator: TA100, Metabolic Activation: RAT, LIVER, S-9, AROCLOR 1254, Method: STANDARD PLATE) is “active; positive”; the mutagenic call (Test System: AMES SALMONELLA TYPHIMURIUM, Strain/Indicator: TA1535, Metabolic Activation: NONE, Method: STANDARD PLATE) was “inactive; negative”; the mutagenic call (Test System: AMES SALMONELLA TYPHIMURIUM, Strain/Indicator: TA1535, Metabolic Activation: RAT, LIVER, S-9, AROCLOR 1254, Method: STANDARD PLATE) is “inactive; negative”. Moreover, the mutagenic call runs as follows: (Test System: AMES SALMONELLA TYPHIMURIUM, Strain/Indicator: TA1537, Metabolic Activation: NONE, Method: STANDARD PLATE) “inactive; negative”; (Test System: AMES SALMONELLA TYPHIMURIUM, Strain/Indicator: TA1537, Metabolic Activation: RAT, LIVER, S-9, AROCLOR 1254, Method: STANDARD PLATE) “active; positive”.
On to `O=[N+]([O-])NC1=NCCN1Cc1ccc(Cl)nc1`, for which the mutagenic call is “inactive; negative” (End Point: In vitro micronucleus, Test System: Human lymphocytes, Metabolic Activation: None); “inactive; negative” (End Point: In vitro micronucleus, Test System: Human peripheral blood lymphocytes, Metabolic Activation: None); “active; positive (at highest dose only)” (End Point: In vitro micronucleus, Test System: Human peripheral blood lymphocytes, Metabolic Activation: Rat, Liver, S-9 (10%)); “active; positive (structural changes)” (End Point: In vivo chromosomal aberrations, Test System: Bone marrow polychromatic erythrocytes, Species: Rat, Strain/Sex: Wistar, Route: Oral); “active; positive (at high dose)” (End Point: In vivo micronucleus, Test System: Bone marrow polychromatic erythrocytes, Species: Rat, Strain/Sex: Wistar/Male, Route: Oral); “active; positive” (End Point: In vivo micronucleus, Test System: Bone marrow polychromatic erythrocytes, Species: Rat, Strain/Sex: Wistar, Route: Oral). The mutagenic call runs as follows: (Test System: Ames Salmonella typhimurium, Strain/Indicator: TA98, Metabolic Activation: None, Method: Preincubation) “active; positive”; (Test System: Ames Salmonella typhimurium, Strain/Indicator: TA98, Metabolic Activation: Rat, Liver, S-9 (10%), Aroclor 1254, Method: Preincubation) “active; positive”; (Test System: Ames Salmonella typhimurium, Strain/Indicator: TA100, Metabolic Activation: None, Method: Preincubation) “inactive; negative”; (Test System: Ames Salmonella typhimurium, Strain/Indicator: TA100, Metabolic Activation: Rat, Liver, S-9 (10%), Aroclor 1254, Method: Preincubation) “inactive; negative”.
As for `COC(C)CCO` (configuration not stated), the mutagenic call is, setting by setting: under setting [6], “inactive; negative”; (Test System: AMES SALMONELLA TYPHIMURIUM, Strain/Indicator: TA98, Metabolic Activation: RAT LIVER S-9, PHENOBARBITAL AND BETA-NAPHTHOFLAVONE, Method: PREINCUBATION) “inactive; negative”; under setting [3], “inactive; negative”; (Test System: AMES SALMONELLA TYPHIMURIUM, Strain/Indicator: TA100, Metabolic Activation: RAT LIVER S-9, PHENOBARBITAL AND BETA-NAPHTHOFLAVONE, Method: PREINCUBATION) “inactive; negative”; (Test System: AMES SALMONELLA TYPHIMURIUM, Strain/Indicator: TA1535, Metabolic Activation: NONE, Method: PREINCUBATION) “inactive; negative”; (Test System: AMES SALMONELLA TYPHIMURIUM, Strain/Indicator: TA1535, Metabolic Activation: RAT LIVER S-9, PHENOBARBITAL AND BETA-NAPHTHOFLAVONE, Method: PREINCUBATION) “inactive; negative”. In addition, the mutagenic call (Test System: AMES SALMONELLA TYPHIMURIUM, Strain/Indicator: TA1537, Metabolic Activation: NONE, Method: PREINCUBATION) is “inactive; negative”; the mutagenic call (Test System: AMES SALMONELLA TYPHIMURIUM, Strain/Indicator: TA1537, Metabolic Activation: RAT LIVER S-9, PHENOBARBITAL AND BETA-NAPHTHOFLAVONE, Method: PREINCUBATION) was “inactive; negative”; the mutagenic call (Test System: E.COLI, Strain/Indicator: WP2UVRA/PKM101, Metabolic Activation: NONE, Method: PREINCUBATION) was “inactive; negative”; the mutagenic call (Test System: E.COLI, Strain/Indicator: WP2UVRA/PKM101, Metabolic Activation: RAT LIVER S-9, PHENOBARBITAL AND BETA-NAPHTHOFLAVONE, Method: PREINCUBATION) is “inactive; negative”.
For the compound `O=c1c2[nH]c3ccccc3c2nnn1/N=C/c1ccc(O)cc1`, the mutagenic call by setting is: under setting [1], “active; positive”; (Test System: AMES SALMONELLA TYPHIMURIUM, Strain/Indicator: TA97, Metabolic Activation: RAT, LIVER, S-9, AROCLOR 1254 (10%), Method: PREINCUBATION) “active; positive”; under setting [6], “active; positive”; (Test System: AMES SALMONELLA TYPHIMURIUM, Strain/Indicator: TA98, Metabolic Activation: RAT, LIVER, S-9, AROCLOR 1254 (10%), Method: PREINCUBATION) “active; positive”; under setting [3], “active; positive”; (Test System: AMES SALMONELLA TYPHIMURIUM, Strain/Indicator: TA100, Metabolic Activation: RAT, LIVER, S-9, AROCLOR 1254 (10%), Method: PREINCUBATION) “active; positive”. The mutagenic call was “active; positive” under setting [2] and “active; positive” (Test System: AMES SALMONELLA TYPHIMURIUM, Strain/Indicator: TA102, Metabolic Activation: RAT, LIVER, S-9, AROCLOR 1254 (10%), Method: PREINCUBATION).
